Data set [1] deals with MC38 tumor. The data set can be described thus: Therapeutic efficacy in SC MC38 tumor bearing mice. It counts as in vivo, C57BL/6 mice. The following applies: ˜300 mm^3, single IV at eq. 20 mg CPT/kg and 6.7 mg DOX-IND/kg. As to the method: In FIG. 8I-8J, 2×10^5 cells/mouse in 100 μL of serum free medium were SC injected to C57BL/6 (n=6). […] Mice survival rate was closely monitored every day.
Mouse weight was monitored every 3 days, and mice survival was monitored every day.
In FIG. 16E-161, 4×10^5 cells/mouse in 100 μL of serum free medium were SC injected to C57BU6 (n=6). Mice were IV injected once with various treatments at equivalent (eq.) 20 mg CPT/kg and 6.7 DOX-IND mg/kg when tumors grew to ˜300 mm^3. α-CD8 (BioXCell, clone 53-6.7) was IP injected at 200 μg/mouse/3 days from day 17. On day 23, mice were euthanized, and tumor tissues were isolated and equally cut into 3 pieces; one part for IHC staining for CD8, Foxp3, Calreticulin, IFN-γ, Perforin, Granzyme B, CC-3) by University of Arizona TACMASR; another two parts for Western blotting of P-S6K and RT-PCR for IL-6, respectively. Mouse weight was monitored every 3 days, and mice survival was monitored every day.
In FIG. 16K-16N, 2×10^5 cells/mouse were SC injected to C57BL/6 (n=5). When tumors reached ˜400 mm^3, mice received a single IV injection with various treatments at eq. […] Mouse weight was monitored every 3-4 days, and mice survival was monitored every day.

The nature of data set [2]: Pharmacokinetics in orthotopic CT26-Luc tumor-bearing mice. The following applies: for AUC(0-inf) / AUC(0-t) / MRT / half-life: BALB/c, mouse, plasma, iv; for AUMC / CL / V / Vss: single IV, nanovesicles 6.7/20 mg DOX-IND/CPT/kg. The method, then:
The various pharmacokinetics parameters were assessed by one-compartmental model using PKSolver software.

Data set [3] can be described thus: Lago optical imaging of in vivo tumor delivery of Cy5.5-labeled Camptothesome-4. More on the design: species or system BALB/c mice. The following applies: SC CT26 tumor mice, entire monitored period (24 h). As to the method: M ice were imaged at 0 h (prior to drug administration), and 2.5, 8, 12, and 24 h post IV injection (excitation=675 nm; emission=710 nm). At 24 h, tumors, heart, liver, spleen, lung, and kidneys were imaged using Lago optical imager. For tumor penetration investigation, tumors were frozen in an acetone/dry ice mixture prior to immunofluorescence examination. The tumor blood vessels were stained with a primary anti-CD31 (a.k.a. PECAM-1) antibody (Abcam, ab28364, 1:50), followed by an Alexa Fluor 488-conjugated secondary antibody (Abcam, ab150073, 1:400). DAPI was used to localize the cellular nuclei. Tumor tissues were cut into […] slide section by University of Arizona TACMASR and subject to the confocal laser scanning microscopy using Leica SP5-II confocal microscope (Buffalo Grove, IL) at University of Arizona Cancer Center Imaging Core.

Data set [4] in a line: Blood kinetics of CPT in SC CT26 tumor bearing mice.
Description: Following a single IV injection via tail vein of free CPT (5 mg CPT/kg, MTD) and different Camptothesomes (20 mg CPT/kg) to SC CT26 tumor bearing mice (n=3, ˜300 mm^3), blood was withdrawn at 0.083, 0.333, 1, 2.5, 8, 12 and 24 h and plasma (via plasma tube, BD Microtainer™) was collected and digested in methanol (90 μL methanol/10 μL serum) for HPLC analysis to measure the released CPT and SM-derived CPT conjugates. 24 h after drug IV administration, tumor tissues and major organs (heart, liver, spleen, lung, and kidneys) were collected, weighed, and then homogenized in acidified methanol (0.075 M HCl, 900 μL/100 mg tissues) followed by drug content determination using an established HPLC method. […] Mice were sacrificed at 2.5 h and 72 h post drug administration, the drug content in the collected tumor tissues and organs were processed, and analyzed as described above.
Data set [5] in a line: Maximum tolerated dose (MTD) and systemic toxicity in healthy mice. It counts as in vivo, BALB/c mice. Particulars: for Animal Death / Weight Loss: n=3, 14 days. As to the method: Changes in body weight and survival of mice were followed every 1-2 days for two weeks. […] On day 14 post drug injection, blood was withdrawn by cardiac puncture and major organs (e.g., heart, liver, and kidneys) were collected. Blood was collected in lithium heparin tubes (BD Microtainer™) followed by centrifuging at 2,000×g for 10 minutes in a refrigerated centrifuge. The supernatant (serum) was sent to University of Arizona University Animal Care Pathology Services Core for a series of serum chemistry analysis. The whole blood in dipotassium EDTA tube (BD Microtainer™) were used for leukocytes, erythrocytes, and thrombocytes analysis. Mice organs from MTD dose and vehicle control groups were placed in a 4% paraformaldehyde solution for 24 h and then sent to Tissue Acquisition and Cellular/Molecular Analysis Shared Resource (TACMASR) at University of Arizona Cancer Center for histopathological analysis.

The test system of data set [6] is CT26 tumor. The data set is described as follows: Therapeutic efficacy in SC CT26 tumor bearing mice. The data set is classed as in vivo, BALB/c mice. The following applies: single IV on day 9 (˜50 mm^3); free CPT 5 mg/kg, Camptothesomes and Onivyde 20 mg CPT or irinotecan/kg. As to the method:
1×10^5 CT26 cells in 100 μL of serum free medium were SC injected in the right flank of the BALB/c mice (n=5 or 6). […] To determine the effect on survival rate in each group (n=6). Kaplan-Meier plots were used to express animal survival rate. For the efficacy study in FIG. 8D-8H, mice were euthanized on day 21; tumors were collected and soaked in 4% paraformaldehyde overnight prior to the immune phenotypic [CD8, Granzyme B, Perforin, Cleaved caspase-3 (CC-3), and IFN-γ] analysis using IHC staining by University of Arizona TACMASR.

The mark [7] stands for this setting: Blood kinetics of IND, IND 1.7 mg/kg.
The mark [8] stands for this setting: BALB/c, mouse, plasma, iv, 5 mg/kg.
Where [9] appears, read: single IV, free CPT 5 mg/kg, Camptothesomes 20 mg CPT/kg, SC CT26 tumor mice, n=3.
Where [10] appears, read: Blood kinetics of CPT, free CPT 5 mg/kg.

As for `COc1cccc2c1C(=O)c1c(O)c3c(c(O)c1C2=O)C[C@@](O)(/C(CO)=N\NC(=O)OCCSSCCOC(=O)C(N)Cc1cn(C)c2ccccc12)C[C@@H]3O[C@H]1C[C@H](N)[C@H](O)[C@H](C)O1` (stereo in doubt) [DOX-IND, 2-((2-((1-methyl-D-tryptophyl)oxy)ethyl)disulfanyl)ethyl (Z)-2-(1-((2S,4S)-4-(((2R,4S, 5S, 6S)-4-amino-5-hydroxy-6-methyltetrahydro-2H-pyran-2-yl)oxy)-2,5,12-trihydroxy-7-methoxy-6,11-dioxo-1,2,3,4,6,11-hexahydrotetracen-2-yl)-2-hydroxyethylidene)hydrazine-1-carboxylate], the “tumor growth in large MC38 tumors” value in data set [1] is on record as “did not show significant tumor growth inhibition”.

In data set [2] (1.7 mg/kg), `Cn1cc(C[C@@H](N)C(=O)O)c2ccccc21` [Free IND, 1-methyl-D-tryptophan] gave an AUC(0-inf) of 5670 ± 540 ng·h/mL, an AUC(0-t) of 5660 ± 530 ng·h/mL, a mean residence time MRT of 24.6 ± 5.4 min and a half-life of 4.8 ± 1.2 min. Further, in data set [2] (setting [7]), the AUMC came to 2.38 ± 0.71 μg/mL*h2, the CL is recorded as 12.08 ± 1.17 μg/(μg/mL)/h, the V was 4.94 ± 0.63 μg/(μg/mL) and the Vss is 4.95 ± 0.63 μg/(μg/mL).

“1,2-dioleoyl-sn-glycero-3-phosphoethanolamine-N-(cyanine 5.5) [Free DSPE-Cy5.5]”: the “fluorescence signal in tumors” value in data set [3] is listed as “no observable signal in tumors”.

The compound `CC[C@@]1(O)C(=O)OCc2c1cc1n(c2=O)Cc2cc3ccccc3nc2-1` [Free CPT, (S)-(+)-camptothecin] had a half-life in data set [4] (BALB/c, mouse, in vivo, iv, 5 mg/kg) of 4.2 ± 0.6 min. For the same compound, in data set [4] (setting [8]), the AUC(0-inf) was determined as 11200 ± 1520 ng·h/mL, the AUC(0-t) was 11000 ± 1550 ng·h/mL and the MRT amounted to 351 ± 24.6 min. In data set [4] (SC CT26 tumor mice, single IV), the “elimination from blood / circulation half-life” value is on record as “rapidly eliminated from blood”. In data set [4] (setting [9]), the AUMC is listed as 65.42 ± 6.99 μg/mL · h^2, the CL came to 36.06 ± 5.00 µg/µg/mL/h, the V amounted to 26.44 ± 0.27 µg/µg/mL and the Vss came to 211.68 ± 38.45 µg/µg/mL. Besides, in data set [5] (Dose 5 mg/kg, single IV), the “Animal Death” value is recorded as 0/3 and the “Weight Loss” value came to 1.82%. For the same compound, the “Animal Death” value in data set [5] (Dose 7.5 mg/kg, single IV) is on record as 1/3. For the same compound, the “Animal Death” value in data set [5] (Dose 10 mg/kg, single IV) is recorded as 1/3. Moreover, in data set [5] (Dose 12.5 mg/kg, single IV), the “Animal Death” value is listed as 0/3 and the “Weight Loss” value is recorded as 25.35%. Moreover, the “systemic toxicity (serum chemistry, blood counts, H&E of organs)” value in data set [5] (at MTD, day 14 post IV injection) was “severe systemic toxicities”. This compound also returned an MTD at 14 days in data set [5] (mouse, in vivo, single IV, healthy BALB/c mice, 14 days, no death, not more than 15% weight loss) of 5 mg/kg. Also, in data set [6], the tumor growth result is “significant tumor reduction”. In addition, in data set [2] (5 mg/kg), the AUC(0-inf) was 9480 ± 880 ng·h/mL, the AUC(0-t) worked out at 9470 ± 870 ng·h/mL, the MRT came out at 51.6 ± 2.4 min and the half-life was 3.6 ± 0.6 min. Also, in data set [2] (setting [10]), the AUMC is given as 8.12 ± 0.38 μg/mL*h2, the CL is reported as 10.62 ± 1.00 μg/(μg/mL)/h, the V is on record as 0.77 ± 0.23 μg/(μg/mL) and the Vss was 9.16 ± 1.30 μg/(μg/mL).

In general, AUC(0-inf) refers to total exposure, with the tail of the curve extrapolated. Low readings indicate less exposure, high ones more exposure. In general, AUC(0-t) refers to exposure summed from dosing to a finite time, without extrapolation to infinity. Low values mean low exposure, high ones high exposure. The term MRT denotes a mean duration of stay, worked out from the concentration-time curve. The half-life is the time needed for the level to fall by half in the phase considered. One may read the MTD as the largest dose that counted as tolerated. Read a high MTD as better tolerability.

The values are drawn from patent US20240009321A1, “IMMUNOGENIC NANOVESICLES FOR CANCER IMMUNOTHERAPY” (Arizona Board of Regents on Behalf of the University of …, priority 2020, published 2024).
